Data published in paper PMC12394179, “Re‐engineering a transferase scaffold for indole C3 methylation in diketopiperazines” (Protein Science : A Publication of the Protein Society, 2025).

Target: T1, SeMT (Saccharopolyspora erythraea, UniProt A4FFC0)
T1 construct: gene SACE_3471; codon-harmonized synthetic gene in pET28a(+), E. coli BL21(DE3), Ni-NTA purified; dimer
T1 sequence (A4FFC0 1-266): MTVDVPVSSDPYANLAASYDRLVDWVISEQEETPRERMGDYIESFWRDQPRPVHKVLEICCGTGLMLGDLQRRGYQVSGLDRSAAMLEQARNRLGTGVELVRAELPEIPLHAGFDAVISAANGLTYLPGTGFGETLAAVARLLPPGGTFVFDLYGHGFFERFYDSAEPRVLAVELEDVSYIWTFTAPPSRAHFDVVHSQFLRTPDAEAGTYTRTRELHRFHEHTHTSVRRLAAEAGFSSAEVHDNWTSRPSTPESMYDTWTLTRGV
Experiment: X-ray crystallography
Assay type: binding
Details: co-crystal with 2 mM SAH, pH 5.6 reservoir; cofactor site (product of methyl transfer)

Nc1ncnc2c1ncn2[C@@H]1O[C@H](CSCC[C@H](N)C(=O)O)[C@@H](O)[C@H]1O [SAH]
X-ray crystallography: the demethylated cofactor SAH (included in the sample for crystallization) is found embraced
